Reference: article PMC5421785, “Citrullination only infrequently impacts peptide binding to HLA class II MHC” (PLoS ONE, 2017)
Read-outs that look alike come from different tables or passages of the source. Square brackets hold non-standard residues; d marks the D form. Peptide text beside a SMILES is read from it. Cit = NC(=O)NCCC[C@H](N)C(=O)O

Assays:
HLA-DRB1*01:01 = target: T1, HLA-DRB1*01:01 (Homo sapiens, UniProt P01903+P01911, A100R/D57E/F55L/F60I/F76Y/I96L/L162R/M171V/P40L/Q125E/R42F/V115G/Y59C); test: HLA class II peptide binding, inhibition of radiolabeled peptide binding to purified MHC; settings: for IC50: read-out: DRB1*01:01 binding capacity, Cit peptide (IC50 nM); for DRB1*01:01 binding capacity, WT/cit ratio: ratio of WT IC50 to Cit IC50
T1 construct: EBV transformed homozygous cell lines were used as sources of MHC molecules; endogenous in cells; host or cells: EBV transformed homozygous cell lines

HLA-DRB1*04:01 = target: T2, HLA-DRB1*04:01 (Homo sapiens, UniProt P01903+P01911, A100K/A169T/F76Y/I96L/K127E/L162R/M171V/N62H/P40V/Q125Y/R42H/S133A/S149N/S66Y/V115G/V209L/W38E); test: as above; settings: for IC50: read-out: DRB1*04:01 binding capacity, Cit peptide (IC50 nM); for DRB1*04:01 binding capacity, WT/cit ratio: ratio of WT IC50 to Cit IC50
T2 construct: EBV transformed homozygous cell lines were used as sources of MHC molecules; endogenous in cells; host or cells: EBV transformed homozygous cell lines

[1] = citrullinated 15-mer peptide (X = citrulline), purified HLA-DRB1*01:01
[2] = citrullinated 15-mer peptide (X = citrulline), purified HLA-DRB1*04:01
[3] = citrullinated 15-mer peptide (X = citrulline), […]
[4] = citrullinated 15-mer (X), purified MHC, inhibition of radiolabeled peptide binding, dash = IC50 >40,000 nM
[5] = >1 = citrullination increases binding

SMILES	IC50 (HLA-DRB1*01:01; [1]) [nM]	IC50 (HLA-DRB1*04:01; [2]) [nM]	IC50 (HLA-DRB1*01:01; [4]) [nM]	IC50 (HLA-DRB1*04:01; [4]) [nM]	also measured
CC(C)C[C@H](NC(=O)CNC(=O)[C@@H]1CCCN1C(=O)[C@H](Cc1ccccc1)NC(=O)CNC(=O)[C@H](CCCNC(N)=O)NC(=O)[C@H](CCC(=O)O)NC(=O)CNC(=O)[C@H](CCCNC(=N)N)NC(=O)[C@H](CCC(N)=O)NC(=O)CNC(=O)[C@@H]1CCCN1)C(=O)N1CCC[C@H]1C(=O)NCC(=O)N1CCC[C@H]1C(=O)O [PGQRGEXGFPGLPGP] (H-PGQRGE[Cit]GFPGLPGP-OH)	10500	> 40000			
CC(C)C[C@H](NC(=O)CNC(=O)[C@@H]1CCCN1C(=O)[C@H](Cc1ccccc1)NC(=O)CNC(=O)[C@H](CCCNC(=N)N)NC(=O)[C@H](CCC(=O)O)NC(=O)CNC(=O)[C@H](CCCNC(N)=O)NC(=O)[C@H](CCC(N)=O)NC(=O)CNC(=O)[C@@H]1CCCN1)C(=O)N1CCC[C@H]1C(=O)NCC(=O)N1CCC[C@H]1C(=O)O [PGQXGERGFPGLPGP] (H-PGQ[Cit]GERGFPGLPGP-OH)	6470	> 40000			
CC(C)C[C@H](NC(=O)[C@H](CO)NC(=O)[C@H](CO)NC(=O)[C@H](Cc1ccccc1)NC(=O)[C@H](CC(N)=O)NC(=O)[C@@H]1CCCN1)C(=O)N[C@@H](CC(N)=O)C(=O)N[C@@H](CC(C)C)C(=O)N[C@@H](CCCNC(N)=O)C(=O)N[C@@H](CCC(=O)O)C(=O)N[C@H](C(=O)N[C@@H](CC(N)=O)C(=O)N[C@@H](CC(C)C)C(=O)N[C@@H](CC(=O)O)C(=O)N[C@@H](CO)C(=O)O)[C@@H](C)O [PNFSSLNLXETNLDS] (H-PNFSSLNL[Cit]ETNLDS-OH)	448	1950			
C[C@H](NC(=O)[C@@H]1CCCN1C(=O)CNC(=O)[C@H](CCC(N)=O)NC(=O)[C@@H]1CCCN1C(=O)CNC(=O)[C@@H]1CCCN1C(=O)[C@@H]1CCCN1)C(=O)NCC(=O)N[C@@H](CCC(=O)O)C(=O)N[C@@H](CCC(N)=O)C(=O)NCC(=O)N1CCC[C@H]1C(=O)N[C@@H](CCCNC(N)=O)C(=O)NCC(=O)O [PPGPQGPAGEQGPXG] (H-PPGPQGPAGEQGP[Cit]G-OH)					IC50 (HLA-DRB1*01:01; [3]): 35600 nM; IC50 (HLA-DRB1*04:01; [3]): > 40000 nM
CC(C)C[C@H](NC(=O)[C@H](CO)NC(=O)[C@H](CCCNC(N)=O)NC(=O)[C@H](CO)NC(=O)[C@@H](NC(=O)[C@H](CO)NC(=O)[C@@H]1CCCN1)[C@@H](C)O)C(=O)N[C@@H](Cc1ccc(O)cc1)C(=O)N[C@@H](C)C(=O)N[C@@H](CO)C(=O)N[C@@H](CO)C(=O)N1CCC[C@H]1C(=O)NCC(=O)NCC(=O)N[C@H](C(=O)O)C(C)C [PSTSXSLYASSPGGV]			524	2520	
C[C@H](NC(=O)CNC(=O)[C@H](C)NC(=O)[C@H](CCC(=O)O)NC(=O)CNC(=O)[C@H](CCCNC(N)=O)NC(=O)[C@H](CC(=O)O)NC(=O)CNC(=O)[C@H](CCC(N)=O)NC(=O)[C@H](CCCCN)NC(=O)CNC(=O)[C@@H](NC(=O)[C@@H]1CCCN1)[C@@H](C)O)C(=O)N[C@@H](CCC(N)=O)C(=O)NCC(=O)O [PTGKQGDXGEAGAQG] (H-PTGKQGD[Cit]GEAGAQG-OH; N-terminus and C-terminus assumed)	> 40000	> 40000			DRB1*01:01 binding capacity, WT/cit ratio (HLA-DRB1*01:01; [5]): 0.6; DRB1*04:01 binding capacity, WT/cit ratio (HLA-DRB1*04:01; [5]): 1.0
CC(C)[C@H](NC(=O)[C@H](CCC(N)=O)NC(=O)[C@H](CCCNC(N)=O)NC(=O)[C@H](CCCNC(=N)N)NC(=O)[C@H](Cc1ccc(O)cc1)NC(=O)[C@H](CCC(=O)O)NC(=O)[C@@H](NC(=O)[C@H](CO)NC(=O)[C@H](CCC(=O)O)NC(=O)[C@H](CCC(N)=O)NC(=O)[C@H](CCCCN)NC(=O)[C@H](C)NC(=O)[C@@H](N)CCC(N)=O)[C@@H](C)O)C(=O)N[C@@H](CCC(N)=O)C(=O)N[C@@H](CO)C(=O)O [QAKQESTEYRXQVQS] (H-QAKQESTEYR[Cit]QVQS-OH)	1740	7440			
CC(C)[C@H](NC(=O)[C@H](CCC(N)=O)NC(=O)[C@H](CCCNC(=N)N)NC(=O)[C@H](CCCNC(N)=O)NC(=O)[C@H](Cc1ccc(O)cc1)NC(=O)[C@H](CCC(=O)O)NC(=O)[C@@H](NC(=O)[C@H](CO)NC(=O)[C@H](CCC(=O)O)NC(=O)[C@H](CCC(N)=O)NC(=O)[C@H](CCCCN)NC(=O)[C@H](C)NC(=O)[C@@H](N)CCC(N)=O)[C@@H](C)O)C(=O)N[C@@H](CCC(N)=O)C(=O)N[C@@H](CO)C(=O)O [QAKQESTEYXRQVQS] (H-QAKQESTEY[Cit]RQVQS-OH)	9030	> 40000			
CC[C@H](C)[C@H](NC(=O)[C@H](CCC(=O)O)NC(=O)[C@H](CC(=O)O)NC(=O)[C@@H](N)CCC(N)=O)C(=O)N[C@@H](CCC(N)=O)C(=O)N[C@@H](CC(N)=O)C(=O)N[C@@H](CCSC)C(=O)N[C@@H](CCCCN)C(=O)N[C@@H](CCC(=O)O)C(=O)N[C@@H](CCC(=O)O)C(=O)N[C@@H](CCSC)C(=O)N[C@@H](C)C(=O)N[C@@H](CCCNC(N)=O)C(=O)N[C@@H](Cc1c[nH]cn1)C(=O)N[C@@H](CC(C)C)C(=O)O [QDEIQNMKEEMAXHL]	5890	3940			
CC(C)[C@H](NC(=O)[C@H](CC(=O)O)NC(=O)[C@H](CCCCN)NC(=O)[C@H](CC(=O)O)NC(=O)[C@H](CC(N)=O)NC(=O)[C@H](Cc1ccc(O)cc1)NC(=O)[C@H](CCCNC(N)=O)NC(=O)[C@H](CCC(N)=O)NC(=O)CNC(=O)[C@H](CC(=O)O)NC(=O)[C@@H](N)CCC(N)=O)C(=O)N[C@@H](Cc1c[nH]c2ccccc12)C(=O)N[C@@H](CCCCN)C(=O)N1CCC[C@H]1C(=O)N[C@@H](CCC(=O)O)C(=O)O [QDGQXYNDKDVWKPE] (H-QDGQ[Cit]YNDKDVWKPE-OH; N-terminus and C-terminus assumed)	> 40000	> 40000			DRB1*01:01 binding capacity, WT/cit ratio (HLA-DRB1*01:01; [5]): 1.0; DRB1*04:01 binding capacity, WT/cit ratio (HLA-DRB1*04:01; [5]): 1.0
CSCC[C@H](NC(=O)[C@H](CCC(=O)O)NC(=O)[C@H](CCC(=O)O)NC(=O)[C@H](CCC(=O)O)NC(=O)[C@H](Cc1ccc(O)cc1)NC(=O)[C@H](CC(C)C)NC(=O)[C@H](CC(=O)O)NC(=O)CNC(=O)[C@H](CC(C)C)NC(=O)[C@H](CCCNC(=N)N)NC(=O)[C@H](CO)NC(=O)[C@H](CCCCN)NC(=O)CNC(=O)[C@@H](N)CCC(N)=O)C(=O)N[C@@H](CCCNC(N)=O)C(=O)O [QGKSRLGDLYEEEMX] (H-QGKSRLGDLYEEEM[Cit]-OH; N-terminus and C-terminus assumed)			> 40000	> 40000	DRB1*01:01 binding capacity, WT/cit ratio (HLA-DRB1*01:01): 0.7; DRB1*04:01 binding capacity, WT/cit ratio (HLA-DRB1*04:01): 1.0
CSCC[C@H](NC(=O)[C@H](CCC(=O)O)NC(=O)[C@H](CCC(=O)O)NC(=O)[C@H](CCC(=O)O)NC(=O)[C@H](Cc1ccc(O)cc1)NC(=O)[C@H](CC(C)C)NC(=O)[C@H](CC(=O)O)NC(=O)CNC(=O)[C@H](CC(C)C)NC(=O)[C@H](CCCNC(N)=O)NC(=O)[C@H](CO)NC(=O)[C@H](CCCCN)NC(=O)CNC(=O)[C@@H](N)CCC(N)=O)C(=O)N[C@@H](CCCNC(=N)N)C(=O)O [QGKSXLGDLYEEEMR] (H-QGKS[Cit]LGDLYEEEMR-OH; N-terminus and C-terminus assumed)			> 40000	> 40000	DRB1*01:01 binding capacity, WT/cit ratio (HLA-DRB1*01:01): 0.7; DRB1*04:01 binding capacity, WT/cit ratio (HLA-DRB1*04:01): 1.0
CC(C)C[C@H](NC(=O)CNC(=O)[C@H](CCCNC(N)=O)NC(=O)[C@@H]1CCCN1C(=O)CNC(=O)[C@@H](N)CCC(N)=O)C(=O)N1CCC[C@H]1C(=O)NCC(=O)N[C@H](C(=O)N1CCC[C@H]1C(=O)NCC(=O)N[C@H](C(=O)N[C@@H](CC(=O)O)C(=O)NCC(=O)N1CCC[C@H]1C(=O)O)[C@@H](C)O)[C@@H](C)O [QGPXGLPGTPGTDGP] (H-QGP[Cit]GLPGTPGTDGP-OH)	21000	> 40000			
CC(C)C[C@H](NC(=O)[C@@H](NC(=O)[C@H](CC(N)=O)NC(=O)[C@H](CCC(=O)O)NC(=O)[C@H](C)NC(=O)[C@H](CCC(=O)O)NC(=O)[C@H](CCC(=O)O)NC(=O)[C@@H](N)CCCNC(=N)N)[C@@H](C)O)C(=O)N[C@@H](CCC(N)=O)C(=O)N[C@@H](CO)C(=O)N[C@@H](Cc1ccccc1)C(=O)N[C@@H](CCCNC(N)=O)C(=O)N[C@@H](CCC(N)=O)C(=O)N[C@@H](CC(=O)O)C(=O)N[C@H](C(=O)O)C(C)C [REEAENTLQSFXQDV] (H-REEAENTLQSF[Cit]QDV-OH)			33300	11600	
C[C@H](NC(=O)CNC(=O)[C@@H]1CCCN1C(=O)[C@H](CO)NC(=O)CNC(=O)[C@H](CCC(=O)O)NC(=O)[C@@H](N)CCCNC(=N)N)C(=O)N[C@@H](CC(=O)O)C(=O)NCC(=O)N1CCC[C@H]1C(=O)N1CCC[C@H]1C(=O)NCC(=O)N[C@@H](CCCNC(N)=O)C(=O)N[C@@H](CC(=O)O)C(=O)NCC(=O)O [REGSPGADGPPGXDG] (H-REGSPGADGPPG[Cit]DG-OH; N-terminus and C-terminus assumed)	> 40000	> 40000			DRB1*01:01 binding capacity, WT/cit ratio (HLA-DRB1*01:01; [5]): 1.0; DRB1*04:01 binding capacity, WT/cit ratio (HLA-DRB1*04:01; [5]): 1.0
CSCC[C@H](NC(=O)[C@H](CCC(=O)O)NC(=O)[C@H](CCC(=O)O)NC(=O)[C@H](CCC(N)=O)NC(=O)[C@H](CC(C)C)NC(=O)[C@H](CCCCN)NC(=O)[C@H](CCC(=O)O)NC(=O)[C@@H](N)CCCNC(=N)N)C(=O)N[C@@H](CC(C)C)C(=O)N[C@@H](CCC(N)=O)C(=O)N[C@@H](CCCNC(N)=O)C(=O)N[C@@H](CCC(=O)O)C(=O)N[C@@H](CCC(=O)O)C(=O)N[C@@H](C)C(=O)N[C@@H](CCC(=O)O)C(=O)O [REKLQEEMLQXEEAE] (H-REKLQEEMLQ[Cit]EEAE-OH)			13200	> 40000	
